Experimental data: EP0370656A1, “Treatment of myelosuppression associated with acquired immune deficiency” (SCHERING CORPORATION, priority 1988, dated 1990)
Read-outs that look alike come from different tables or passages of the source.

Key:
[1] = test system: white blood cell (WBC) count; settings: for WBC (per cm³): GM-CSF 0 µg/kg
Description: A person was diagnosed as having AIDS and CMV retinitis. […]

[2] = test system: cytomegalovirus retinitis; settings: intravenous, 7.5 to 15 mg per kilogram per day; patients with cytomegalovirus retinitis; cited from earlier work

Structure (SMILES): Nc1nc(O)c2ncn(COC(CO)CO)c2n1 [DHPG, 9-(1,3-dihydroxy-2-propoxymethyl) guanine]
- WBC (per cm³) ([1]; Example 1, person, Day 0, % dose of DHPG changed to 50): 1000 per cm³
- result of DHPG treatment (adverse effect) ([1]; Example 1, DHPG commenced at Day 0): life threatening myelosuppression
- WBC (per cm³) ([1]; Example 1, Day 29, % dose of DHPG changed to 50): 700 per cm³
- WBC (per cm³) ([1]; Example 1, Day 34, % dose of DHPG changed to 0): 300 per cm³
- WBC (per cm³) ([1]; Example 1, Day 49 (DHPG at 0 % since Day 34), % dose of DHPG changed to 100): 1900 per cm³
- WBC (per cm³) ([1]; Example 1, Day 52, % dose of DHPG changed to 50): 700 per cm³
- major adverse effect of DHPG therapy [2]: dose related myelosuppression, especially neutropenia
